# What was measured:
# human keratinocytes [1] = test: UVB light protection: LDH release from UVB-irradiated in vitro cultivated human keratinocytes (UVB-LDH); format: cell-based; settings: positive control aspirin at 0.03%, control with UV = 100
# Excerpt: Antiinflammatory Properties In Vitro-UVB Light Protection (UVB-LDH and UVB-PGE2)
# (§1) Cell Protection Effect Against UVB on In Vitro Cultivated Human Keratinocytes
# This membrane stress is indicated by the release of the cytoplasm enzyme lactate dehydrogenase (LDH). The effect of UVB radiation was investigated on keratinocytes in vitro by determining the release of the cytoplasm enzyme LDH (lactate dehydrogenase). This enzyme serves as a marker for cell damage.
# (§2) Method: To carry out the tests, a defined medium (DMEM), which comprises 10% fetal calf serum, was inoculated with the keratinocytes and the plant extract (diluted with saline solution) was added 72 hours after inoculation.
# (§3) The keratinocytes were then irradiated with a UVB dose (30 mJ/cm^2-tubes: DUKE GL40E).
# Following further incubation for 1 day at 37° C. and at 5% CO2, the LDH and the PGE2 content in the supernatant was determined. The content of LDH (lactate dehydrogenase) was determined by means of an enzyme reaction (kit used to investigate the LDH content from Roche). The content of PGE2 was determined using an ELISA test (ELISA kit from Roche). Following trypsin treatment, the cells were centrifuged and counted.
# UVB-LDH LDH or lactate dehydrogenase determination by means of an enzyme reaction
# human keratinocytes [2] = test: UVB light protection: PGE2 release from UVB-irradiated in vitro cultivated human keratinocytes, ELISA (UVB-PGE2); format: cell-based; settings: positive control aspirin at 0.03%, control with UV = 100
# Description: as §1, §2, §3
# Following further incubation for 1 day at 37° C. and at 5% CO2, the LDH and the PGE2 content in the supernatant was determined. […] The content of PGE2 was determined using an ELISA test (ELISA kit from Roche).
# UVB-PGE2 prostaglandins E2 determined using an ELISA test (ELISA kit from Roche).
compound,measurement,setting,value
CC(=O)Oc1ccccc1C(=O)O [aspirin],LDH release (% of UV control),human keratinocytes [1]; Table 4,15%
same,LDH release (% of UV control),human keratinocytes [1]; Table 6,0%
same,PGE2 release (% of UV control),human keratinocytes [2]; Table 4,-6%
same,PGE2 release (% of UV control),human keratinocytes [2]; Table 6,0%

# Reference: patent US11234918B2, “Methods for botanical and/or algae extraction” (BASF CORPORATION, priority 2012, dated 2022)
